Data from patent publication US20240252582A1, “METHODS FOR TREATING AMBLYOPIA” (City University of Hong Kong, priority 2023, published 2024).
Non-standard residues stand in square brackets, D forms with d. Phe(3-Br) = N[C@@H](Cc1cccc(Br)c1)C(=O)O; Nle = CCCC[C@H](N)C(=O)O

Experiments:
[1] = test system: juvenile C57BL/6 mice model of amblyopia (LTMD); test: In-vivo electrophysiology (spike recording in V1), contralateral bias index after long-term monocular deprivation
Method: The mice are anesthetized through the application of a K-X combination during the surgical preparation. The body temperatures of the mice are maintained at 37° C. by use of a homeostatically controlled heating pad during the surgery. Following the induction of anesthesia, each mouse is mounted on a stereotaxic instrument (RWD Life Science, Shenzhen, China) and an incision is made along the midline of the head. The stereotaxic instrument is adjusted to place the bregma and lambda points of the skull on a flat skull surface (anteroposterior: −3.2 mm to −4.0 mm; mediolateral: 3.0-3.8 mm, relative to bregma). A piece of the scalp over the V1 is removed to expose the cortex, and a bone screw is fixed in the frontal bone as the reference electrode. The exposed cortical surface is then covered with extracellular saline (in mM: 125 NaCl, 5 KCl, 10 glucose, 10 4-(2-hydroxyethyl)-1-piperazineethanesulphonicacid [HEPES], and 2 CaCl2; pH adjusted to 7.4) to prevent drying of the surface. The electrode is lowered into the brain to an appropriate depth (V1≤1 mm) and is allowed to settle for 30 min before recording is begun. In each mouse, 3-4 separate penetrations are spaced evenly at least 200 μm apart across the binocular region of V1. The eyes are kept moist with ophthalmic lubricant ointment until recording to prevent drying while enabling clear optical transmission. At the end of the recording, the mice are euthanized by injection of an overdose of Dorminal (300 mg/kg).
Visual stimuli of sinusoidal drifting gratings with increasing orientation angles(0-330°) and 0.4 cpd are presented in random order to alternate eyes. The spike recordings are performed with the use of a polyimide-coated platinum/iridium (70:30) ribbon microelectrode array (Clunbury Scientific LLC, USA). The tip resistances are 30-50 kΩ. The A-M Systems 3600 (A-M Systems, USA) and CED Micro 1401-3 (Cambridge Electronic Design, UK) instruments are used as the amplifier and data acquisition system, respectively. The signals are sampled at 25 kHz and bandpass-filtered at 300 Hz-3 KHz for spike, amplified, and fed to spike2 software (Cambridge Electronic Design, UK). Offline analysis is performed using MATLAB (R2020b, Math Works, USA). To begin, the raw data are transformed into a MATLAB-compatible format. Spike sorting is used to distinguish various units collected at the same time in the spike data. Wave clus, a MATLAB tool, is used to categorize the units based on the characteristics of their waveforms.
The neuronal response in the Visual cortex (V1) is recorded extracellularly, while the same visual stimulus with varied orientation is presented to either of the eyes alternatively, and the relative strength of the response is determined.
To quantify the deprivation effect, the inventors calculate the contralateral bias index (CBI) from spikes (response from the single neuron) using the following formula:
where NT is the total number of units and NX is the number of units with OD scores equal to x (x=1, 2, 3, 5, 6, 7). For the sum of the number of cells in each category is used to calculate the CBI for each animal.
FIGS. 1A and 1B, show the timeline of the experimental setup, i.e. LTMD, surgery, dosing, and in-vivo electrophysiology used in the second and third experiments. In the second experiments, in juvenile after LTMD, saline or CCK8s (Cholecystokinin octapeptide (Tocris Bioscience, UK): 1 ul each day (10 ng/ul), Cholecystokinin octapeptide (Tocris Bioscience, UK)) is infused (treatment) for 15 days (from P42 to P57) in V1. […] The ipsilateral eye is dominated. Contrarily, in the group treated with CCK8s (infusion in V1), the ocular dominance shifts from the ipsilateral eye towards the contralateral eye (CBI=0.65, 12 animals) (FIG. 1G).
In juvenile after LTMD, 3r1 (a type of CCKBR agonist, Guangzhou Institute of Biomedicine and Health, affiliated with the Chinese Academy of Sciences, Guangzhou, China) (4.18 uM) is administered intraperitoneally (i.p). […]

[2] = test system: juvenile C57BL/6 mice model of amblyopia (LTMD); test: Visual water behavioral test of visual acuity after long-term monocular deprivation; assay type: in vivo; details: for Visual acuity: Long-term MD (P21-P42) mice, WT adult 0.44; for Performance (percentage accuracy) during training after treatment / Cutoff (70% accuracy) achieved during testing / Visual acuity, Mean±SEM (FIG. 2G, post hoc analysis): juvenile LTMD mice; for Performance (percentage accuracy) during training after treatment: cutoff 70% accuracy (FIG. 2F); for Visual acuity, Mean±SEM (FIG. 2G, post hoc analysis): WT 0.44±0.02 (P>0.05)
Excerpt: Amblyopia patients usually have poor visual acuity. It is believed that the method according to the invention can reverse the lost visual acuity in amblyopia patients. FIGS. 2A-2G illustrate the assessment of visual acuity using visual water maze. Dotted line represents the 70% accuracy as cutoff. As shown in FIGS. 2C-2E, WT adult (P60) mice with no MD show cutoff at cpd 0.45 achieved during testing by all the animals (12 animals). After LTMD in juvenile followed by saline (infusion)/CCK8s treatment, the mice show cutoff at cpd 0.30 and 0.52 respectively achieved during testing by all the animals (11 animals/12 animals respectively). After LTMD in juvenile followed by saline (i.p)/CCKBR agonist (3r1) treatment, the mice show cutoff at cpd 0.33 and 0.46 respectively achieved during testing by all the animals (11 animals/15 animals respectively). […] The performance of the animals during training in WT adult (P60) with no MD, before and after remained unchanged. After LTMD in juvenile, the performance of animals during training before and after saline (infusion) treatment remained unchanged and the performance of animals during training before and after CCK8s treatment show the difference. […] After LTMD in juvenile, the performance of animals during training before and after saline (i.p) treatment remained unchanged and the performance of animals during training before and after CCK-agonist (3r1) treatment show the difference. […] A significant difference is observed between saline (infusion) and CCK8s treated animals (P<0.001) and in between saline (i.p) and CCKBR agonist (3r1) (P<0.001). No significant difference in visual acuity observed in adult (P60), no MD and juvenile LTMD following CCK8s and CCKBR agonist (3r1) treated animals (P>0.05). Error bars in FIG. 2G indicate the standard error of the mean (SEM).
Visual water behavioral test is performed to show visual acuity improvement following long-term monocular deprivation after administration of CCK8s and CCKBR agonist (3r1). Each animal learns quickly to associate swimming to the escape platform placed below the screen displaying grating stimuli during pre-training phase and post-training phase. Animals of all groups learn serendipitously during training to swim to the end of the divider, and then look at each screen several times before making their choice.
FIGS. 2A and 2B show the behavioural experimental design of this example: (CCK8s) infusion in V1 and CCKBR agonist (3r1)(i.p). The testing criterion in the training phase (from P42 to P47) is reached for all mice within four sessions (32 trials). Average performance above 70% accuracy is maintained for all mice of different groups (FIG. 2F). The visual acuity of the groups is illustrated in FIGS. 2C-2E.

| Substance | Contralateral bias index (CBI) ([1]; juvenile LTMD mice, i.p., 4 doses on alternate days for 7 days, 0.0122890 mg/kg per dose, saline CBI=0.31) | Contralateral bias index (CBI) ([1]; juvenile LTMD mice, i.p., 8 doses on alternate days for 14 days, 0.0122890 mg/kg per dose, saline CBI=0.31) | Histogram of V1 cells, eye response bias ([1]; juvenile LTMD mice, treatment for fourteen days (FIG. 1J)) | Histogram of V1 cells, eye response bias ([1]; juvenile LTMD mice, treatment for seven days (FIG. 1I)) | Visual acuity ([2]; i.p., saline (i.p) 0.33) [c/d] | Performance (percentage accuracy) during training after treatment [2] | Cutoff (70% accuracy) achieved during testing ([2]; i.p., saline (i.p) 0.33, WT 0.45 (FIG. 2E)) [cpd] | Visual acuity, Mean±SEM (FIG. 2G, post hoc analysis) ([2]; i.p., saline (i.p) 0.33±0.01 (P<0.001)) [c/d] | Contralateral bias index (CBI) ([1]; juvenile LTMD (P21-P42) mice, infusion in V1, 1 ul each day (10 ng/ul), 15 days (P42-P57), saline CBI=0.33) | Histogram of V1 cells, eye response bias ([1]; juvenile LTMD mice, infusion 15 days (FIG. 1G)) | Visual acuity ([2]; infusion, saline (infusion) 0.3) [c/d] | Visual acuity, Mean±SEM (FIG. 2G, post hoc analysis) ([2]; infusion, saline 0.309±0.01 (P<0.001)) [c/d] | Cutoff (70% accuracy) achieved during testing ([2]; infusion, saline (infusion) 0.30, WT 0.45 (FIG. 2D)) [cpd] |
| --- | --- | --- | --- | --- | --- | --- | --- | --- | --- | --- | --- | --- | --- |
| Ac-W[Nle]D[Phe(3-Br)]-NH2 [3r1] | 0.66 | 0.68 | strong contralateral eye bias | strong contralateral eye bias | 0.46 | reaches beyond the cutoff | 0.46 | 0.46±0.02 |  |  |  |  |  |
| Cholecystokinin octapeptide [CCK8s, reference compound] |  |  |  |  |  | reaches beyond the cutoff |  |  | 0.65 | strong contralateral eye bias | 0.5 | 0.5±0.01 | 0.52 |
